How the values were obtained:
A549 tumor = test: A549 non-small cell lung tumor subcutaneous xenograft; format: in vivo, nude mice; settings: RDV, SDV […], 4 i.p. injections 7 days apart; conjugates […] agent and 250 μg/dose antibody
Method: Navelbine is a chemotherapy compound indicated in non-small cell cancer of the lung and in metastatic cancer of the breast. […] For this study, 5·10^6 A549 cells were grafted subcutaneously on the right flank of the mouse. Five days after the cell graft, the tumors are measurable and the treatments with MAb and/or navelbine are commenced. The MAb dose is always 250 μg/dose/mouse, twice per week, intra-peritoneally. Concerning navelbine, it will be administered at the maximum dose tolerated by the mouse or 10 mg/kg, intraperitoneally. For this treatment three injections will be carried out at intervals of 7 days. During the coadministrations, the two products are mixed before injection.
For this study, nude mice are grafted s.c. with 5·10^6 A549 cells. Five days after the cell graft, the tumors are measured and a homogeneous batch of mice in terms of tumor volume is formed. Starting from this batch, groups of 6 mice are generated at random.
To do this, 5·10^6 A549 cells were implanted subcutaneously in nude mice. Five days after this implantation, the tumors were measured and groups of 6 mice were formed. […] This granule is essential to the establishment of any E2-dependent human tumor in this animal species.
These conjugates are administered according to the same modes as the groups given the chemotherapy compounds alone; • the animals of the control batch are given injections of PBS, administered according to the same frequency.
The weight of the mice and the tumor volume are evaluated twice a week. The tumor volumes are calculated according to the formula: ½ (length·width·height).

P388 murine leukemia = P388 murine leukemia grafted intravenously, survival (T/C); format: in vivo, CDF1 mice
Method: The compound is administered intraperitoneally in a single dose on day 1. The protocol for this test is described by Kruczynski A. et al., Cancer Chemotherapy and Pharmacology, 1998, volume 41, pages 437 to 447.
Conventionally, the in vivo activity of cytotoxic compounds is expressed by the T/C at a dose expressed in mg per kg. The T/C corresponds to the ratio, multiplied by 100, of the median of the survival time of the treated animals to the median of the survival time of the control animals.
The protocol for this test is described by Kruczynski A. et al., Cancer Chemotherapy and Pharmacology, 1998, volume 41, pages 437 to 447.
To do this, a total of 10^6 P388 murine leukemia cells were implanted i.v. in CDF1 mice on day 0. After randomization of the animals in cages for treatment with each alkaloid and control cages, the compounds were administered i.p. on day 1.
Conventionally, the in vivo activity of compounds is expressed by the increase in survival time. The survival time is expressed by the T/C at a dose expressed in mg per kg (mg/kg). The T/C corresponds to the ratio, multiplied by 100, of the median of the survival time of the treated animals to the median of the survival time of the control animals. In agreement with the standard criteria of the NCl, a T/C of 120 corresponds to a minimum level for concluding that activity is present.
A T/C below 75 expresses toxicity of the test compound at the dose administered.

MCF-7 cells [1] = test: Apoptosis of MCF-7 cells (Annexin V-FITC/DAPI flow cytometry); format: cell-based, human; settings: doxorubicin 2 μg/ml, 24 hours, IGF-I 50 ng/ml
Method: As indicated above, IGF-IR is capable of conferring protection against apoptosis when it is overexpressed on the surface of cells. […] In these experiments, the MCF-7 cells are inoculated at 2·10^4/cm^2 in Petri dishes and cultured for 24 h in RPMI without phenol red supplemented with 10% of fetal calf serum (FCS). The cells are then washed twice with PBS and put back into culture in medium with 0% FCS. They are allowed an adaptation time of 10 minutes at 37° C. before the addition of the antibodies at 10 μg/ml. After an extra 10 minutes at 37° C., recombinant IGF-I (Sigma) is added to the culture medium to a final concentration of 50 ng/ml. The cells are left at 37° C. again for one hour in order to allow the attachment of the antibodies and of the IGF-I. Finally, the doxorubicin (Sigma) is added to the culture medium at 2 μg/ml and the cells are incubated for 24 hours at 37° C.
The experiments have likewise been conducted with navelbine at a concentration of 10 μg/ml.
The analysis of the cell viability is carried out by flow cytometric analysis after labeling with the annexin V-FITC (20 minutes, 4° C.) and DAPI (2 μg/ml). The percentage of dead cells considered is the labeled population Annexin+/DAPI+. The antibody 5C2 is used as a control isotype.

MCF-7 cells [2] = test: Cell cycle of MCF-7 cells with IGF1; format: cell-based, human
Method: The inhibition of the cell growth observed in vitro on the line MCF-7 should be manifested by an effect on the cell cycle. In order to reply to this question, 4·10^5 cells are inoculated into 6-well plates. […] After incubation for 24 hours, the cells are recovered for the study of the cell cycle.

[3] = dose 0.63 mg/kg i.p. single dose day 1, T/C = median survival treated/control ×100, below 75 = toxicity
[4] = dose 1.25 mg/kg i.p. single dose day 1
[5] = dose 5 mg/kg i.p. single dose day 1
[6] = dose 10 mg/kg i.p. single dose day 1
[7] = after addition of IGF1, 24 hours ([…] in the absence of IGF1)

## CCC1CC2CN(CCc3c([nH]c4ccccc34)[C@@](C(=O)OC)(c3cc4c(cc3OC)N(C)[C@H]3C(O)(C(=O)OC)[C@H](OC(C)=O)[C@]5(CC)C=CCN6CC[C@]43[C@@H]65)C2)C1 (stereo partly drawn) [4′-R-deoxyvinblastine, 4′-R deoxyvinblastine]
A549 tumor
  A549 tumor growth, deoxyvinblastines alone or coupled to h7C10: evolve in the same manner as the control group
P388 murine leukemia; [3]
  T/C: 100
P388 murine leukemia; [4]
  T/C: 100
P388 murine leukemia; [5]
  T/C: 143
P388 murine leukemia; [6]
  T/C: 200
P388 murine leukemia; dose 20 mg/kg i.p. single dose day 1
  T/C: 214
P388 murine leukemia; dose 40 mg/kg i.p. single dose day 1
  T/C: 43

## CC[C@@H]1C[C@@H]2CN(CCc3c([nH]c4ccccc34)[C@@](C(=O)OC)(c3cc4c(cc3OC)N(C)[C@H]3[C@@](O)(C(=O)OC)[C@H](OC(C)=O)[C@]5(CC)C=CCN6CC[C@]43[C@@H]65)C2)C1 [4′-S-deoxyvinblastine, 4′-S deoxyvinblastine]
A549 tumor
  A549 tumor growth, deoxyvinblastines alone or coupled to h7C10: evolve in the same manner as the control group
P388 murine leukemia; [3]
  T/C: 114
P388 murine leukemia; [4]
  T/C: 143
P388 murine leukemia; [5]
  T/C: 100
P388 murine leukemia; [6]
  T/C: 57

## COc1cccc2c1C(=O)c1c(O)c3c(c(O)c1C2=O)C[C@@](O)(C(=O)CO)C[C@@H]3O[C@H]1C[C@H](N)[C@H](O)[C@H](C)O1 [doxorubicin, reference compound]
MCF-7 cells [1]
  apoptosis, percentage of MCF-7 cells: 8%

## CC[C@]1(O)C[C@@H]2CN(CCc3c([nH]c4ccccc34)[C@@](C(=O)OC)(c3cc4c(cc3OC)N(C)[C@H]3[C@@](O)(C(=O)OC)[C@H](OC(C)=O)[C@]5(CC)C=CCN6CC[C@]43[C@@H]65)C2)C1 [vinblastine, reference compound]
P388 murine leukemia; [3]
  T/C: 114
P388 murine leukemia; [4]
  T/C: 114
P388 murine leukemia; [5]
  T/C: 143
P388 murine leukemia; [6]
  T/C: 57

## CC[C@]1(O)C[C@H]2CN(CCc3c([nH]c4ccccc34)[C@@](C(=O)OC)(c3cc4c(cc3OC)N(C=O)[C@H]3[C@@](O)(C(=O)OC)[C@H](OC(C)=O)[C@]5(CC)C=CCN6CC[C@]43[C@@H]65)C2)C1 [vincristine, reference compound]
P388 murine leukemia; [3]
  T/C: 114
P388 murine leukemia; [4]
  T/C: 143
P388 murine leukemia; [5]
  T/C: 100
P388 murine leukemia; [6]
  T/C: 57

## IGF1: insulin-like growth factor 1, native ligand of IGF-IR
MCF-7 cells [2]; after addition of IGF1, 24 hours (4% in the absence of IGF1)
  proportion of MCF-7 cells in G2/M phase: 12.7%
MCF-7 cells [2]; [7]
  proportion of MCF-7 cells in G0/G1 phase: 56.3%
  proportion of MCF-7 cells in S phase: 31%
